Where two headings read alike, the source gives them in different places.
What was measured:
[1] = target: T1, phosphodiesterase type III obtained from ox heart (Bos taurus, UniProt A0A3Q1M1E8); experiment: Inhibition of phosphodiesterase type III, Method A (Diederen and Weisenberger); assay type: biochemical; details: read-out: percentage inhibition of FDE-III activity; for inhibition at 10 µM: 10^-5 mol/l; for inhibition at 1 µM: 10^-6 mol/l; for inhibition at 0.1 µM: 10^-7 mol/l
T1 sequence (A0A3Q1M1E8 1-1126): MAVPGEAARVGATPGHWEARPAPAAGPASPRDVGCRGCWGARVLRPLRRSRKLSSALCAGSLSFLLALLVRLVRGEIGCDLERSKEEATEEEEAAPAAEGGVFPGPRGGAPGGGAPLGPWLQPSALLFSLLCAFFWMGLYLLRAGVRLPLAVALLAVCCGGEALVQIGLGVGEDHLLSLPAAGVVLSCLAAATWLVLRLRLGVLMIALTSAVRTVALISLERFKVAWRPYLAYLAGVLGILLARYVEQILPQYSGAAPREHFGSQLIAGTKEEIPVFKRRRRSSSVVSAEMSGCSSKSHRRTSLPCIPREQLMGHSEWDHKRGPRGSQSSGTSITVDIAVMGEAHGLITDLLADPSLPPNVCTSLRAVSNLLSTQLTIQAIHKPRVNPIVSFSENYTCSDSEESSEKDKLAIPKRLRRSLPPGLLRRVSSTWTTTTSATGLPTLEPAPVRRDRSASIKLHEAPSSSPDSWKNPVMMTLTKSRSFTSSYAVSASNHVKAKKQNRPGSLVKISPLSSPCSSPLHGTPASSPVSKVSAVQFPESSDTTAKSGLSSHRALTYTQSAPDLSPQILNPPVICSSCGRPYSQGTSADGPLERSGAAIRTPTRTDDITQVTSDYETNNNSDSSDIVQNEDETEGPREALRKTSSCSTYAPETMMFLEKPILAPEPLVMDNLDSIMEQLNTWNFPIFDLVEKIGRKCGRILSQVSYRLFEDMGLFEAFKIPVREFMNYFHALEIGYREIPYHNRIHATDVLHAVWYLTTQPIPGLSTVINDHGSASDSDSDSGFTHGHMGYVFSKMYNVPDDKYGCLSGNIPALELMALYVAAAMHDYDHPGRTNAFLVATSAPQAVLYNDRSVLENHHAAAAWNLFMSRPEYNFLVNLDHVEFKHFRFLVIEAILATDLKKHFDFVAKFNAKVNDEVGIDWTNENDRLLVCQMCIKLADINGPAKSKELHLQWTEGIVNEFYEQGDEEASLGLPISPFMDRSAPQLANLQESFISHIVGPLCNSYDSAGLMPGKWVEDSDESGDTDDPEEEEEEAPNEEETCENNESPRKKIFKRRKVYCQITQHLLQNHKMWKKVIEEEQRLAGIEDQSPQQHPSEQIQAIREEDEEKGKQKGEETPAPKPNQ
Protocol: (§1) The inhibitory action of the compounds according to the invention on phosphodiesterase was tested on phosphodiesterase type III obtained from ox heart (Sigma Chemie, BRD) by the methods of W. Diederen and H. Weisenberger (Arzneim.-Forschumg 31, 177 (1981)) (Method A) and of M. A. Appleman and W. L. Terasaki (Advances in Cyclic Nucleotide Research, volume 5, Raven Press, New York (1975), page 153) (Method B).

narcotised guinea pigs = experiment: Haemodynamic characterisation on narcotised guinea pigs (in vivo model); parameters: species or system guinea pig; details: 10 μg/kg/min, infused through left jugular vein, under β-blockage (metoprolol 2 mg/kg i.m.)
From the text: (§2) The benzimidazoles according to the invention corresponding to the general formula I combine good oral availability with interesting pharmacological properties, especially cardiovascular effects, in particular positive inotropic and blood pressure lowering effects. They show an excellent cardiotonic activity in numerous pharmacological standard models, for example in vitro in the isolated, perfused Langendorff heart or in vivo on narcotised guinea pigs, where they produce a marked increase in contractility.
2. Haemodynamic Characterisation on Narcotised Guinea Pigs (in vivo model)
The animals were narcotised with urethane (1.5 g/kg). The trachea was cannulated for volume controlled respiration. The two carotid arteries were then exposed operatively. A Tip catheter (3F) was introduced through the right carotid artery and moved forwards through the ascending aorta into the left ventricle while the pressure was continuously recorded. Successful passage through the aortic valves is recognised by the typical left ventricular pressure curve. A thermistor probe (3F, F. Edwards) is pushed forwards into the aortic arch through the left carotid for thermodilution. The thermistor probe also has a lumen for the recording of arterial blood pressure. A catheter is passed through the right jugular vein to be placed in front of the right auricle for application of the cold injectate (0.2 ml of 0.9% NaCl, 15° C.). The ECG is recorded in the first shunt. All substances are dissolved in physiological saline solution and infused through the left jugular vein (infusion volume 0 02 ml/min). The drug is applied after haemodynamic stabilisation and under β-blockage (metoprolol 2 mg/kg i.m.). All circulatory parameters are continuously registered on a direct recorder. The pulse frequency is calculated from the ECG, the contractility (dp/dt) is calculated from the […] and the volumetric cardiac output per unit time is calculated from the thermodilution curve.

[2] = target: T1, phosphodiesterase type III obtained from ox heart; experiment: Inhibition of phosphodiesterase type III, Method B (Appleman and Terasaki); assay type: biochemical; details: read-out: percentage inhibition of FDE-III activity; for inhibition at 100 µM: 10^-4 mol/l; for inhibition at 10 µM: 10^-5 mol/l; for inhibition at 1 µM: 10^-6 mol/l
Protocol: as §1

[3] = test system: isolated, perfused guinea pig hearts; experiment: Haemodynamic effects on isolated, perfused Langendorff hearts (guinea pigs); details: Cavia porcellus
From the text: as §2
1. Investigations on isolated, perfused Langendorff Hearts (guinea pigs)
The arrangement of Langendorff was modified according to P. R. Beckett (J. Pharm. Pharmacol. 22, 818 (1970)) and R. M. Abel and R. L. Reis (Circ. Res. 27, 961 (1970)) to determine the haemodynamic effects of the compounds according to the invention on isolated, perfused guinea pig hearts. The spontaneously beating guinea pig hearts were catheterised in the left ventricle and perfused with solutions of the test substances in physiological saline solution/ethanol (9:1) at concentrations of 10^-4 to 10^-8 mol/1 at a constant perfusion pressure of 60 mm Hg.

[4] = test system: phosphodiesterase type III; details: heart muscle cells; cited from earlier work
[5] = cited from earlier work
[6] = concentration range 10^-7 - 10^-5 mol/l, read-out: Maximum percentage changes compared with controls: Cardiac Frequency
[7] = concentration range 10^-7 - 10^-5 mol/l, read-out: Maximum percentage changes compared with controls: Contractility dp/dt
[8] = concentration range 10^-7 - 10^-5 mol/l, read-out: Maximum percentage changes compared with controls: Coronary Flow
[9] = due to the mechanisms of their action

SMILES | inhibition at 100 µM ([1]; 10^-4 mol/l) | inhibition at 10 µM [1] | inhibition at 1 µM [1] | inhibition at 0.1 µM [1] | Maximum percentage changes compared with initial values: Blood Pressure sys. (narcotised guinea pigs) | Maximum percentage changes compared with initial values: Cardiac Frequency (narcotised guinea pigs) | Maximum percentage changes compared with initial values: Contractility dp/dt (narcotised guinea pigs) | inhibition at 100 µM [2] | inhibition at 10 µM [2] | inhibition at 1 µM [2] | inhibition at 0.1 µM ([2]; 10^-7 mol/l) | Emax ([3]; concentration range 10^-8 - 10^-4 mol/l, read-out: Maximum percentage changes compared with controls: Cardiac Frequency) | Emax ([3]; concentration range 10^-8 - 10^-4 mol/l, read-out: Maximum percentage changes compared with controls: Contractility dp/dt) | Emax ([3]; concentration range 10^-8 - 10^-4 mol/l, read-out: Maximum percentage changes compared with controls: Coronary Flow) | Emax [3, 6] | Emax [3, 7] | Emax [3, 8] | positive inotropic effect by inhibiting phosphodiesterases, in particular type III [4] | undesirable side effects ([5]; in vivo) | undesirable side effects [5, 9]
CC1CC(=O)NN=C1c1ccc2[nH]c(CCCN)nc2c1 (centres unmarked) [Example 1] | 10% | 7% | 0% | 0% | -25% | +20% | +38% | 4% | 0% | 0% | 0% | 11% | 76% | 25% | – | – | – | – | – | –
CC1CC(=O)NN=C1c1ccc2[nH]c(CCCNC(=N)NCCCc3c[nH]cn3)nc2c1 (centres unmarked) [Example 6] | – | – | – | – | -15% | +17% | +97% | – | – | – | – | – | – | – | 20% | 161% | 52% | – | – | –
COc1ccc(-c2nc3ccc(C4=NNC(=O)CC4C)cc3[nH]2)cc1 (centres unmarked) [Pimobendane, reference compound] | – | 30% | 15% | 7% | -51% | +3% | +10% | 57% | 19% | 5% | – | – | – | – | 8% | 99% | 76% | positive inotropic effect | undesirable side effects due to the mechanisms of their action, such as thrombocytopaenia or gastrointestinal disturbances | –
Nc1cc(-c2ccncc2)c[nH]c1=O [amrinone] | – | – | – | – | – | – | – | – | – | – | – | – | – | – | – | – | – | positive inotropic effect | – | undesirable side effects due to the mechanisms of their action, such as thrombocytopaenia or gastrointestinal disturbances
Cc1[nH]c(=O)c(C#N)cc1-c1ccncc1 [milrinone] | – | – | – | – | – | – | – | – | – | – | – | – | – | – | – | – | – | positive inotropic effect | – | undesirable side effects due to the mechanisms of their action, such as thrombocytopaenia or gastrointestinal disturbances

— patent publication US4957920A, “Benzimidazoles, and pharmaceutical preparations containing these compounds” (priority 1987, dated 1990)
